The supplement of paper PMC10307832

compound: NC(=O)c1ccc(N(C(N)=O)c2c(F)cccc2F)nc1-c1ccc(F)cc1F [VX-702] + O=C(c1cc(Cc2n[nH]c(=O)c3ccccc23)ccc1F)N1CCN(C(=O)C2CC2)CC1 [Olaparib] (partner 8 µM); test: relative viability (nuclei count vs DMSO), 5 days (fraction); higher = more cells survive; settings: first compound 0.02 µM
Method in brief: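 Lung cancer cell lines, seeded in 1536-well plates, were treated the following day by pin tool with a single drug or with five library-drug doses (not always all listed) in √10 steps on top of a fixed anchor-drug dose. Cells were fixed and nuclei stained in one step after 5 days, and nuclei were counted. Relative viability is the nuclei count for treated wells divided by that for vehicle wells, reported as medians of duplicate plates.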

Cell Line | relative viability
LCLC-103H | 0.788
NCI-H596 | 0.66
HCC-827 | 0.648
COR-L 105 | 0.633
NCI-H1299 | 0.982
NCI-H2126 | 0.901
A549 | 0.444
NCI-H647 | 0.752
LOU-NH91 | 0.888
HCC-78 | 0.743
HCC-44 | 1.01
NCI-H1651 | 0.178
NCI-H1755 | 0.911
HOP-62 | 0.478
PC-14 | 0.315
NCI-H1650 | 0.78
ChaGo-K-1 | 0.458
A-427 | 0.779
NCI-H1355 | 0.752
NCI-H1648 | 0.817
NCI-H1792 | 0.396
HCC-15 | 0.752

Cell Line | relative viability
LU99A | 0.265
EKVX | 0.726
COR-L23 | 0.351
NCI-H1437 | 0.656
RERF-LC-KJ | 1.01
NCI-H1734 | 0.637
BEN | 0.781
NCI-H460 | 0.428
H3255 | 0.578
SK-LU-1 | 0.504
NCI-H1793 | 0.939
NCI-H23 | 0.372
SW 1573 | 0.495
NCI-H838 | 0.772
NCI-H2342 | 0.401
EPLC-272H | 0.856
NCI-H3122 | 0.636
NCI-H1915 | 0.28
NCI-H727 | 0.67
NCI-H1975 | 0.792
LK-2 | 0.68
HCC-366 | 0.409

Cell Line | relative viability
NCI-H2087 | 0.552
LCLC-97TM1 | 0.428
NCI-H661 | 0.752
NCI-H2405 | 0.931
NCI-H1993 | 0.5
PC-3 [JPC-3] | 1.2
NCI-H2009 | 0.751
NCI-H2347 | 0.498
NCI-H520 | 0.358
EBC-1 | 0.82
LXF-289 | 1.08
NCI-H358 | 0.628
LC-2-ad | 0.724
201T | 0.832
NCI-H1666 | 0.804
NCI-H2023 | 0.459
NCI-H322M | 1.26
HARA | 0.87
NCI-H1395 | 0.447
SK-MES-1 | 0.679

same assay, conditions: first compound 0.2 µM

Cell Line | relative viability
ABC-1 | 0.894
CAL-12T | 0.69
NCI-H1944 | 0.435
NCI-H2085 | 0.824
IA-LM | 0.841
NCI-H2228 | 0.794
NCI-H441 | 0.553
NCI-H522 | 0.678
EMC-BAC-2 | 0.483
NCI-H2170 | 0.546
NCI-H1703 | 0.361
UMC-11 | 0.352
NCI-H650 | 0.433
LCLC-103H | 0.757
NCI-H596 | 0.714
HCC-827 | 0.603
COR-L 105 | 0.658
NCI-H1299 | 0.924
NCI-H2126 | 0.91
A549 | 0.243
NCI-H647 | 0.509
LOU-NH91 | 0.891
HCC-78 | 0.671
HCC-44 | 0.982
NCI-H1651 | 0.174
NCI-H1755 | 0.897

Cell Line | relative viability
HOP-62 | 0.611
PC-14 | 0.329
NCI-H1650 | 0.813
ChaGo-K-1 | 0.414
A-427 | 0.751
NCI-H1355 | 0.729
NCI-H1648 | 0.851
NCI-H1792 | 0.434
HCC-15 | 0.712
LU99A | 0.233
EKVX | 0.869
Calu-6 | 0.597
COR-L23 | 0.339
NCI-H1437 | 0.633
RERF-LC-KJ | 0.854
NCI-H1734 | 0.547
BEN | 0.89
NCI-H460 | 0.438
H3255 | 0.53
SK-LU-1 | 0.435
NCI-H23 | 0.254
SW 1573 | 0.445
NCI-H838 | 0.715
NCI-H2342 | 0.457
EPLC-272H | 1.07
NCI-H3122 | 0.61

Cell Line | relative viability
NCI-H1915 | 0.257
NCI-H727 | 0.789
NCI-H1975 | 0.746
LK-2 | 0.601
HCC-366 | 0.361
NCI-H2087 | 0.58
LCLC-97TM1 | 0.307
NCI-H661 | 0.73
NCI-H2405 | 0.805
NCI-H1993 | 1.06
PC-3 [JPC-3] | 1.14
NCI-H2009 | 0.705
NCI-H2347 | 0.467
NCI-H520 | 0.305
EBC-1 | 0.702
LXF-289 | 1.07
NCI-H358 | 0.526
LC-2-ad | 0.678
201T | 0.882
NCI-H1666 | 0.754
NCI-H2023 | 0.461
NCI-H322M | 0.839
NCI-H1395 | 0.46
SK-MES-1 | 0.681

same assay, conditions: first compound 0.6325 µM

Cell Line | relative viability
ABC-1 | 1.03
CAL-12T | 0.711
NCI-H1944 | 0.432
NCI-H2085 | 0.878
IA-LM | 0.994
NCI-H2228 | 0.754
NCI-H441 | 0.572
NCI-H522 | 0.667
